Data from patent publication US11059820B2, “Crystalline forms of seletalisib” (UCB BIOPHARMA SPRL, priority 2017, dated 2021).

Legend:
Format in all cases: physicochemical
[1] = Dynamic Vapor Sorption (DVS); details: 25° C.
Description: Two different types of DVS equipment were used, where the sample weight uptake is plotted against the relative humidity over the sample: • SMS DVS controlled by the software DVS Win. The sample temperature is maintained at 25° C. The weight change of the sample as a function of % RH (relative humidity expressed as a percentage) was monitored by the microbalance. The sample was placed on a glass pan attached to the microbalance. A moisture cycle was performed from 30 to 90 to 0 to 30% RH at 25° C. (dm/dt 0.002 with a scanning step 10%). • Projekt Messtechnik Sorptions Prüfsystem SPS 11-100n or Surface Measurement Systems DVS-1; the sample was placed on an aluminium (SPS 11) or platinum (DVS-1) holder on top of the microbalance and conditioned at 25% RH and 25° C. A moisture cycle was performed from 25 to 95 to 0 to 25% RH at 5% RH per hour at 25° C.

[2] = Kinetic stability: solid, powdery samples exposed to air at selected temperature and relative humidity; details: 7 weeks, solid powder exposed to air
Description: (§1) The thermodynamic stability was checked by suspending crystals of Form B for 30 days in appropriate solvent/water mixtures, thus creating environments with the desired water activity. As water activity is equivalent to relative humidity (e.g. 60% RH=water activity 0.6), and due to the more rapid exchange of molecules between the crystals and the saturated solution in the suspension, this approach gives the possibility to observe the equilibrium condition of the solid form. […] Kinetic stability was checked by exposing solid, powdery samples to air at selected temperature and relative humidity.
(§2) The thermodynamic stability was checked by suspending crystals of Form F for 30 days in appropriate solvent/water mixtures, as explained above for Form B crystals.

[3] = Thermodynamic stability: crystals suspended for 30 days in solvent/water mixtures of desired water activity
Description: as §1, §2

Row | SMILES | continuous water uptake ([1]; from 25% RH to 95% RH) | stepwise mass loss ([1]; second part of the cycle (95% RH to 0% RH), at low RH) | stepwise water uptake ([1]; third part of the cycle (0% RH to 25% RH)) | kinetic stability ([2]; 25° C./60% RH) | kinetic stability ([2]; 40° C./75% RH) | thermodynamic stability under ICH conditions ([3]; 25° C./60% RH, (Hydrate)) | thermodynamic stability under ICH conditions ([3]; 40° C./75% RH, (Hydrate)) | limited water uptake ([1]; observed from 70% RH onwards) | hygroscopic behaviour (DVS) ([1]; variable relative humidity) | thermodynamic stability under ICH conditions ([3]; 25° C./60% RH) | thermodynamic stability under ICH conditions ([3]; 40° C./75% RH)
1 | [O-][n+]1cccc(-c2nc3c(Cl)cccc3cc2[C@@H](Nc2ncnc3cccnc23)C(F)(F)F)c1 [Form B, N-{(R)-1-[8-Chloro-2-(1-oxypyridin-3-yl)quinolin-3-yl]-2,2,2-trifluoroethyl}pyrido[3,2-d]pyrimidin-4-ylamine, Crystal Form B (Hydrate)] | ~2.4 % weight | 3.3 % weight | 3.6% | kinetically stable | kinetically stable | thermodynamically stable | thermodynamically stable |  |  |  | 
2 | [O-][n+]1cccc(-c2nc3c(Cl)cccc3cc2[C@@H](Nc2ncnc3cccnc23)C(F)(F)F)c1 [Form F, N-{(R)-1-[8-Chloro-2-(1-oxypyridin-3-yl)quinolin-3-yl]-2,2,2-trifluoroethyl}pyrido[3,2-d]pyrimidin-4-ylamine, Crystal Form F] |  |  |  |  |  |  |  | 1% | non-hygroscopic | not to be thermodynamically stable | not to be thermodynamically stable
